Values belong to the compound of their own block, whether it stands above or below them.
Key:
[1] = molecular target: T1, purified human IDO1 enzyme (Homo sapiens, UniProt P14902); assay: IDO1 inhibition assay by the spectrometric method (pDMAB); assay type: biochemical; settings: for fold stronger IDO1 inhibitory activity than 1a: in comparison with lead compound 1a; for IC50: purified human IDO1, spectrophotometric, mean of three independent assays, read-out: hIDO1 IC50
T1 construct: made in house; host or cells: Escherichia coli M15 (pQE30 vector with pREP4 plasmid)
Description: Both IDO1 and TDO inhibition assays were performed according to the reported procedures[26]–[30],[50],[51]. […] In the assay system, the minimum and maximum amount of DMSO was 0.02% and 2%, respectively. […] The concentration of the inhibitors was varied from 100 µM to 32 nM by serial dilution technique. Then, the reaction was quenched with 100 µL of 30% (w/v) trichloroacetic acid and was incubated for further 15 minutes at 65 °C. After that, 2% (w/v) pDMAB was used to quantify the amount of kynurenine formation. The absorbance of the reaction mixture was recorded by UV-Vis spectrophotometer at 480 nm.

[2] = molecular target: T2, purified human TDO enzyme (Homo sapiens, UniProt P48775); assay: TDO inhibition assay by the spectrometric method; assay type: biochemical; settings: spectrophotometric; for inhibition at 0.032 µM: 32 nM; for inhibition at 0.16 µM: 160 nM; for inhibition at 0.8 µM: 800 nM
T2 construct: 6xHis (N); made in house; host or cells: Escherichia coli BL21 (DE3) (pET 28a vector)
Description: Both IDO1 and TDO inhibition assays were performed according to the reported procedures[26]–[30],[50],[51]. The solubility of the compounds in water was either moderate or poor. […] In the assay system, the minimum and maximum amount of DMSO was 0.02% and 2%, respectively. The standard reaction mixture (500 μL) containing KPB (100 mM, pH 6.5 for IDO1 enzyme and 50 mM, pH 8.0 for TDO enzyme), sodium ascorbate (20 mM), methylene blue (10 µM), catalase (240 nM, from bovine liver), L-Trp (150 µM), purified enzyme (40 nM for IDO1 and 25 nM for TDO), DMSO (0.05%, v/v), Triton-X 100 (0.01%, v/v) and inhibitors was incubated at 37 °C for 1 hour. The concentration of the inhibitors was varied from 100 µM to 32 nM by serial dilution technique. Then, the reaction was quenched with 100 µL of 30% (w/v) trichloroacetic acid and was incubated for further 15 minutes at 65 °C. After that, 2% (w/v) pDMAB was used to quantify the amount of kynurenine formation. The absorbance of the reaction mixture was recorded by UV-Vis spectrophotometer at 480 nm. The Km = 59.76 µM and Kcat = 6.18 sec^−1.

IDO1 [3] = molecular target: T3, IDO1 (Homo sapiens, UniProt P14902); assay: Kynurenine assay by HPLC analysis, IDO1; assay type: biochemical; parameters: made in house; host or cells: Escherichia coli M15 (pQE30 vector with pREP4 plasmid)
Description: (§1) HPLC based IDO1, and TDO inhibition assays were performed according to the earlier reported procedure[19],[27]–[30]. The reaction mixture (250 µL) contained KPB (100 mM, pH 6.5 for IDO1 and 50 mM, pH 8.0 for TDO), sodium ascorbate (20 mM), methylene blue (10 µM), catalase (240 nM, from bovine liver, Sigma), L-Trp (150 µM), purified enzyme (40 nM for IDO1 and 25 nM for TDO), DMSO (0.05%, v/v), Triton-X 100 (0.01%, v/v) and inhibitors. The concentration of the compound was varied from 100 µM to 32 nM by serial dilution. The mixture was incubated at 37 °C for 1 hour in the absence and presence of the synthesized compounds. The reaction was then quenched using 50 µL of 30% (w/v) trichloroacetic acid and incubated at 65 °C for additional 15 minutes to allow complete hydrolysis of N-formylkynurenine to kynurenine. After that, the mixture was centrifuged at 10,000 rpm for 10 minutes, and 100 µL of clear solution was transferred to another tube for HPLC analysis. Then, 20 µL of the reaction mixture was then injected through Ascentis® express C18, 2.7 µm HPLC column with a flow rate of 0.5 mL/minute of the mobile phase containing 50% sodium citrate buffer (40 mM, pH 2.25) and 50% methanol (v/v) with 400 µM SDS. The area under the curve at 365 nm chromatogram corresponding to the kynurenine formation was recorded, and % of inhibition was calculated using standard curve prepared with pure kynurenine (from Sigma) under similar experimental conditions.

IDO1 [4] = molecular target: T3, IDO1; assay: Cellular IDO1 activity assay in IFN-γ induced MDA-MB-231 cells; assay type: cell-based; parameters: induce the expression of the native IDO1 enzyme from its mRNA in the MDA-MB-231 cells; endogenous in cells; host or cells: MDA-MB-231 cells induced with human IFN-γ (50 ng/mL); settings: IDO1 expression induced by human IFN-γ (50 ng/mL); mean of three
Description: The cellular enzyme activity assay was performed according to the reported procedure with minor modifications[19],[27]–[30],[33],[54]. Briefly, MDA-MB-231 breast cancer cells were selected for this assay because of the presence of IDO1 mRNA in this cell line. First, cells were grown in DMEM/F12 complete media overnight. Then different concentration of human interferon-gamma (IFN-γ) (from 5–1000 ng/mL) was added to it and incubated for 48 hours. This treatment is reported to allow over-expression of IDO1 enzyme in MDA-MB-231 cells. […] Sterile cell-culture grade PBS was used to wash the cells by centrifugation technique. Then, the pellet was lysed in 10 mM HEPES buffer by passing through a sterile syringe. The lysate was used for standard IDO1 assay as mentioned earlier. The relative amount of N-formylkynurenine generated in the presence of the different concentration of IFN-γ was used to optimize the required concentration of IFN-γ for the IDO1 inhibition assay. […] Cells stimulated with IFN-γ alone were used as negative control, while cells stimulated with L-Trp without compound served as positive control. The cells were washed with sterile cell culture grade PBS and lysed in 10 mM HEPES buffer by sterile syringe. The lysate was used for standard IDO1 assay, as mentioned earlier, and the extent of IDO1 enzyme inhibition was determined for the selected compounds.

TDO enzyme = molecular target: T4, TDO enzyme (Homo sapiens, UniProt P48775); assay: HPLC based TDO inhibition assay; assay type: biochemical
T4 construct: 6xHis (N); made in house; host or cells: Escherichia coli BL21 (DE3) (pET 28a vector)
Description: as §1

T2 sequence (P48775 whole entry): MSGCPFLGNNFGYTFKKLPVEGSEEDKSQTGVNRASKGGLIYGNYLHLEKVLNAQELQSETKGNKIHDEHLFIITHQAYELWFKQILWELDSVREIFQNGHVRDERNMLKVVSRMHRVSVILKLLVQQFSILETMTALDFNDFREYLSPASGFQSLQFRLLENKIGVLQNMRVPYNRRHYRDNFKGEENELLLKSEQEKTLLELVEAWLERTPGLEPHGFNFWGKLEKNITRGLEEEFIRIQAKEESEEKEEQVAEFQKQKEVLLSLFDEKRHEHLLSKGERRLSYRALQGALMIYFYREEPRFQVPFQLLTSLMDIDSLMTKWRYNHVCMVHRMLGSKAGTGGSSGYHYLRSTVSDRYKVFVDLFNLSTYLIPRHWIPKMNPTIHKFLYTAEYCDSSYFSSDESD
T4 sequence (P48775 whole entry): as above
T1 sequence (P14902 whole entry): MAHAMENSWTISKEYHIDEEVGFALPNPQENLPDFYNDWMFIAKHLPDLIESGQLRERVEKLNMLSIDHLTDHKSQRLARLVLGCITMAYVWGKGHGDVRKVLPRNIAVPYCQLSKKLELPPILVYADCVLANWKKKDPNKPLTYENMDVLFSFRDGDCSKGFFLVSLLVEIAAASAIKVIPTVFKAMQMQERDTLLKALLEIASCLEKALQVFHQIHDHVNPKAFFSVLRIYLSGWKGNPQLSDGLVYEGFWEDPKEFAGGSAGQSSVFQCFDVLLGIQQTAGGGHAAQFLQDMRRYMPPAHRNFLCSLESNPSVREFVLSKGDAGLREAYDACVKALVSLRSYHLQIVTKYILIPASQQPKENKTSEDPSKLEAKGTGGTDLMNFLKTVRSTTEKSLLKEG
T3 sequence (P14902 whole entry): as above

SMILES: CCOC(=O)c1n[nH]nc1-c1ccc(F)c(Br)c1 [2 l]
IC50 [1]: 3.04 ± 0.091 µM

SMILES: NC(=O)c1n[nH]nc1-c1ccc(F)c(Br)c1 [3 l]
IC50 [1]: 1.993 ± 0.005 µM

SMILES: Cc1ccc(-c2n[nH]nc2-c2ccc(C)cc2)cc1 [Compound 1b]
IC50 [1]: 54.9 ± 0.757 µM

SMILES: Fc1cccc(-c2n[nH]nc2-c2cccc(F)c2)c1 [Compound 1c]
IC50 [1]: 4.99 ± 0.057 µM

SMILES: Clc1cccc(-c2n[nH]nc2-c2cccc(Cl)c2)c1 [Compound 1d]
IC50 [1]: 2.51 ± 0.06 µM

SMILES: Brc1cccc(-c2n[nH]nc2-c2cccc(Br)c2)c1 [Compound 1e]
IC50 [1]: 21.9 ± 1.27 µM

SMILES: Fc1ccc(-c2n[nH]nc2-c2ccc(F)cc2)cc1 [Compound 1f]
IC50 [1]: 25.2 ± 1.7 µM

SMILES: Clc1ccc(-c2n[nH]nc2-c2ccc(Cl)cc2)cc1 [Compound 1g]
IC50 [1]: 3.21 ± 0.1 µM

SMILES: Brc1ccc(-c2n[nH]nc2-c2ccc(Br)cc2)cc1 [Compound 1h]
IC50 [1]: 40.7 ± 2.7 µM

SMILES: Fc1ccc(-c2n[nH]nc2-c2ccc(F)c(F)c2)cc1F [Compound 1i]
IC50 [1]: 7.72 ± 0.761 µM

SMILES: CCOC(=O)c1n[nH]nc1-c1ccccc1 [Compound 2a, ethyl 5-phenyl-2H-1,2,3-triazole-4-carboxylate]
inhibition at 0.032 µM [2]: 8% | inhibition at 0.16 µM [2]: 17% | inhibition at 0.8 µM [2]: 19% | inhibition at 4 µM [2]: 23% | inhibition at 20 µM [2]: 27% | inhibition at 100 µM [2]: 34% | IC50 (IDO1 [3]; HPLC based IDO1 inhibition assay): 2.79 ± 0.066 µM | inhibition at 0.032 µM (IDO1 [3]; HPLC, 32 nM): 26% | inhibition at 0.16 µM (IDO1 [3]; HPLC, 160 nM): 31% | inhibition at 0.8 µM (IDO1 [3]; HPLC, 800 nM): 35% | inhibition at 4 µM (IDO1 [3]; HPLC, 4 µM): 61% | inhibition at 20 µM (IDO1 [3]; HPLC, 20 µM): 76% | inhibition at 100 µM (IDO1 [3]; HPLC, 100 µM): 81% | EC50 (IDO1 [4]): 3.26 ± 0.045 µM | inhibition at 0.032 µM (TDO enzyme; 32 nM): 9% | inhibition at 0.16 µM (TDO enzyme; 160 nM): 39% | inhibition at 0.8 µM (TDO enzyme; 800 nM): 49% | inhibition at 4 µM (TDO enzyme; 4 µM): 68% | inhibition at 20 µM (TDO enzyme; 20 µM): 68% | inhibition at 100 µM (TDO enzyme; 100 µM): 73% | fold stronger IDO1 inhibitory activity than 1a [1]: 6 fold | IC50 [1]: 14.4 ± 3.36 µM

The remaining compounds from weak to strong by IC50 [1], led by results:

inhibition at 0.032 µM [2]: 8% | inhibition at 0.16 µM [2]: 10% | inhibition at 0.8 µM [2]: 19% | inhibition at 4 µM [2]: 28% | inhibition at 20 µM [2]: 40% | inhibition at 100 µM [2]: 59% | IC50 [1]: 90 ± 2.94 µM
SMILES: c1ccc(-c2nn[nH]c2-c2ccccc2)cc1 [Compound 1a, 4,5-diphenyl 2H-1,2,3-triazole]

IC50 [1]: 31.4 ± 4.21 µM
SMILES: CCOC(=O)c1n[nH]nc1-c1cccc(F)c1 [Compound 2c]

IC50 [1]: 12.9 ± 0.191 µM
SMILES: Clc1ccc(-c2n[nH]nc2-c2ccc(Cl)c(Cl)c2)cc1Cl [Compound 1j]

IC50 [1]: 6.91 ± 0.099 µM
SMILES: Fc1ccc(-c2n[nH]nc2-c2ccc(F)c(Cl)c2)cc1Cl [Compound 1k]

IC50 [1]: 2.55 ± 0.033 µM
SMILES: CCOC(=O)c1n[nH]nc1-c1cccc(Cl)c1 [Compound 2d]

fold stronger IDO1 inhibitory activity than 1a [1]: 46 fold | IC50 [1]: 1.94 ± 0.083 µM
SMILES: Fc1ccc(-c2n[nH]nc2-c2ccc(F)c(Br)c2)cc1Br [1 l]

IC50 [1]: 1.7 ± 0.061 µM
SMILES: CCOC(=O)c1n[nH]nc1-c1ccc(C)cc1 [Compound 2b]
